The numbers were not newly measured in PMC12308805, “Ultrahigh-Throughput Virtual Screening Strategies against PPI Targets: A Case Study of STAT Inhibitors” (Journal of Chemical Information and Modeling, 2025), which cites them from elsewhere.

The structures appear in SMILES notation. Square brackets hold non-standard residues; d marks the D form. Peptide text beside a SMILES is read from it. * marks the point of attachment. Isobutyryl = CC(C)C(=O)*

The test system of this series is STAT3. Particulars: sheet 6QHD_actives_decoys, retrospective screening set for STAT3 SH2 domain (PDB 6QHD); decoys are presumed inactives, not tested; ref DUD-E; cited from earlier work.
For `C[C@@]1(c2cc3ccccc3o2)NC(=O)N(CC(=O)Nc2cccc(S(=O)(=O)N3CCCC3)c2)C1=O` [Decoy779], the Type result was “Inactive (Decoy)”. Regarding `C/C(=C(/CCO)SS/C(CCO)=C(\C)N(C=O)Cc1cnc(C)nc1N)N(C=O)Cc1cnc(C)nc1N` [Decoy780], the Type entry is “Inactive (Decoy)”.

Turning to `C/C(=C(\CCO)SS/C(CCO)=C(\C)N(C=O)Cc1cnc(C)nc1N)N(C=O)Cc1cnc(C)nc1N` [Decoy781], the Type entry was “Inactive (Decoy)”. With `C[C@H](O)C[C@H](O)[C@@H](SC[C@@H](O)C(=O)O)[C@@H](O)/C=C/Cc1cc2c(Cl)c(O)cc(O)c2c(=O)o1` [Decoy782], the Type entry is “Inactive (Decoy)”. With `CC(=O)c1cccc(S(=O)(=O)NCCC(=O)Nc2ccc(S(=O)(=O)/N=C3\CCCCCN3)cc2)c1` [Decoy783], the Type entry is “Inactive (Decoy)”. With `Cc1ccc(OCC(=O)NNC(=O)CCCCC(=O)NNC(=O)COc2ccc(C)cc2Br)c(Br)c1` [Decoy784], the Type entry is on record as “Inactive (Decoy)”. With `CC(/C=C/C=C(\C)C(=O)O)=C\C=C\C=C(C)\C=C\C=C(/C)C(=O)O[C@@H]1O[C@H](CO[C@@H]2O[C@H](CO)[C@@H](O)[C@H](O)[C@H]2O)[C@@H](O)[C@H](O)[C@H]1O` [Decoy785], the Type entry is “Inactive (Decoy)”. As for `COc1cc(/C=N/N=C2\NC(=O)[C@H](CC(=O)O)S2)cc(Br)c1OS(=O)(=O)c1ccc(NC(C)=O)cc1` [Decoy786], the Type entry is “Inactive (Decoy)”.

With `COc1cc(/C=N/NC(=O)CSc2nnc(-c3cccc([N+](=O)[O-])c3)n2N)c([N+](=O)[O-])cc1O` [Decoy787], the Type result is recorded as “Inactive (Decoy)”. In the case of `Cc1nn(C)cc1CN1CCN(C(=S)Nc2ccc(S(=O)(=O)Nc3ncccn3)cc2)CC1` [Decoy788], the Type result is recorded as “Inactive (Decoy)”.

On to `CCOC(=O)c1ccc(NC(=O)CSc2nnc(CNC(=O)c3ccco3)n2-c2ccc(OCC)cc2)cc1` [Decoy789], for which the Type entry was “Inactive (Decoy)”. Regarding `C=CCOc1ccc([C@H]2C(C(=O)c3ccc(S(=O)(=O)N(C)C)cc3)=C(O)C(=O)N2CCCN(C)C)cc1OC` [Decoy790], the Type result is “Inactive (Decoy)”. In the case of `OC[C@@H](O)[C@H](O[C@@H]1O[C@H](CO)[C@@H](O)[C@H](O)[C@H]1O)[C@@H](O)C(/C=N/Nc1ccccc1)=N/Nc1ccccc1` [Decoy791], the Type entry is “Inactive (Decoy)”. As for `CCOC(=O)N[C@@](Nc1ccc(S(=O)(=O)Nc2ncccn2)cc1)(C(=O)OCC)C(F)(F)F` [Decoy792], the Type entry was “Inactive (Decoy)”. As for `Nc1nnc(S(=O)(=O)N[C@]2(C(F)(F)F)C(=O)N=C3C2=C(O)NC(=O)N3Cc2cccnc2)s1` [Decoy794], the Type entry is recorded as “Inactive (Decoy)”. As for `O=c1cc(-c2ccc(O)c(O)c2)oc2cc(O[C@@H]3O[C@H](CO[C@@H]4OC[C@@H](O)[C@@H](O)[C@H]4O)[C@@H](O)[C@H](O)[C@H]3O)cc(O)c12` [Decoy795], the Type result is “Inactive (Decoy)”. Consider `CCOc1ccc(-n2c(Cc3cc(=O)[nH]c(=O)[nH]3)nnc2SCC(=O)Nc2ccc(F)cc2)cc1` [Decoy796], for which the Type result is given as “Inactive (Decoy)”. For the compound `CCCCSc1nnc(/N=C(\O)CSc2n[nH]c(N/N=C/c3c(C)nn(C(C)C)c3C)n2)s1` [Decoy797], the Type entry is on record as “Inactive (Decoy)”.

Take `CCOc1cccc(/C=N/NC(=O)CSc2nnc(-c3cc(OC)c(OC)c(OC)c3)n2-c2ccccc2)c1O` [Decoy798]: the Type result is reported as “Inactive (Decoy)”. Turning to `CCOc1ccc2[nH]c(=O)c(CN(CCc3ccc(OC)c(OC)c3)Cc3nnnn3C3CCCC3)cc2c1` [Decoy799], the Type result is given as “Inactive (Decoy)”. Regarding `COc1cc(C(=O)OC[C@]2(O)CO[C@H](OC[C@@H]3O[C@@H](Oc4c(OC)cc(CO)cc4OC)[C@H](O)[C@H](O)[C@@H]3O)[C@@H]2O)cc(OC)c1O` [Decoy800], the Type result was “Inactive (Decoy)”. Consider `Cc1nnc(CSc2nnc(NC(=O)CSc3n[nH]c(N/N=C/c4ccncc4)n3)s2)o1` [Decoy801], for which the Type entry was “Inactive (Decoy)”. As to `CCN1C[C@]2(COC)[C@H](O)C[C@H](OC)[C@@]34[C@@H]2[C@@H](OC)[C@@H]([C@@H]13)[C@]1(OC(C)=O)[C@H]2[C@@H](OC(=O)c3ccccc3)[C@](O)(C[C@]24O)[C@@H](OC)[C@@H]1O` [Decoy802], the Type result is on record as “Inactive (Decoy)”. As for `CCSc1nnc(NC(=O)CSc2n[nH]c(N/N=C/c3ccc(F)cc3)n2)s1` [Decoy803], the Type entry is “Inactive (Decoy)”.

As to `CNC(=O)[C@H](CC(C)C)NC(=O)[C@H](Cc1c[nH]cn1)NC(=O)[C@@H](C)NC(=O)[C@@H](NC(=O)[C@H](C)NC(=O)[C@H](Cc1c[nH]c2ccccc12)NC(=O)[C@H](Cc1c[nH]cn1)NC(=O)C(C)C)C(C)C` [Decoy804] (Isobutyryl-HWAV[dA]HL-NHMe), the Type result was “Inactive (Decoy)”. Regarding `CNC(=O)[C@H](CC(C)C)NC(=O)[C@H](Cc1c[nH]cn1)NC(=O)[C@@H](C)NC(=O)[C@@H](NC(=O)[C@H](C)NC(=O)[C@H](Cc1c[nH]c2ccccc12)NC(=O)[C@H](Cc1cnc[nH]1)NC(=O)C(C)C)C(C)C` [Decoy805] (Isobutyryl-HWAV[dA]HL-NHMe), the Type entry is “Inactive (Decoy)”. On to `CNC(=O)[C@H](CC(C)C)NC(=O)[C@H](Cc1cnc[nH]1)NC(=O)[C@@H](C)NC(=O)[C@@H](NC(=O)[C@H](C)NC(=O)[C@H](Cc1c[nH]c2ccccc12)NC(=O)[C@H](Cc1cnc[nH]1)NC(=O)C(C)C)C(C)C` [Decoy806] (Isobutyryl-HWAV[dA]HL-NHMe), for which the Type entry is reported as “Inactive (Decoy)”. In the case of `COC(=O)c1sc2cc(SCC(=O)Nc3cc(OC)c(OC)c(OC)c3)ccc2c1/N=C(\O)C(F)(F)F` [Decoy807], the Type entry was “Inactive (Decoy)”. `COCCNC(=O)[C@@H](c1ccc(F)cc1)N(C(=O)c1snc(C(N)=O)c1N)c1ccc2c(c1)OCO2` [Decoy808]: the Type result was “Inactive (Decoy)”. Consider `CC(=O)Nc1ccc(S(=O)(=O)NCCCCNc2ccc([N+](=O)[O-])c3cccnc23)cc1` [Decoy809], for which the Type result was “Inactive (Decoy)”. As for `COC(=O)Cc1c(C(=O)OC)sc(NC(=O)CSc2nc(C(C)(C)C)n[nH]2)c1C(=O)OC` [Decoy810], the Type result is listed as “Inactive (Decoy)”. For `Cc1nnc(/N=C(\O)CSc2nnc(NN=C(Cc3ccccc3)Cc3ccccc3)n2N)s1` [Decoy811], the Type entry is on record as “Inactive (Decoy)”. Consider `CC(O)(O)C(=O)OCC(C)(COC(=O)C(C)(O)O)C(=O)OCC(C)(COC(=O)C(C)(COC(=O)C(C)(O)O)COC(=O)C(C)(O)O)C(=O)OCCS` [Decoy812], for which the Type entry was “Inactive (Decoy)”. Take `CCCCNC(=O)[C@@H](c1cc([N+](=O)[O-])ccc1Cl)N(Cc1ccc(C)o1)C(=O)c1ccccc1O` [Decoy813]: the Type entry is reported as “Inactive (Decoy)”. Regarding `CSCC[C@@H](NC(=O)[C@H](N)Cc1ccc(O)cc1)C(=O)N[C@H](Cc1ccccc1)C(=O)N[C@H](Cc1c[nH]cn1)C(=O)N[C@@H](CC(C)C)C(=O)N[C@H](CCSC)C(=O)N[C@@H](CC(=O)O)C(N)=O` [Decoy814] (H-[dY][dM][dF][dH]L[dM]D-NH2), the Type entry is “Inactive (Decoy)”.

`COc1cc(/C=C/C(=O)OC[C@H]2O[C@H](O[C@]3(CO)O[C@H](CO)[C@@H](O)[C@@H]3O)[C@H](O)[C@@H](O)[C@@H]2O)cc(OC)c1O` [Decoy815]: the Type entry is “Inactive (Decoy)”. For the compound `COc1cc(C[C@@]2(O)CO[C@H](c3ccc(O[C@@H]4O[C@H](CO)[C@@H](O)[C@H](O)[C@H]4O)c(OC)c3)[C@H]2CO)ccc1O` [Decoy816], the Type entry is “Inactive (Decoy)”. As for `COc1cc([C@@H]2OC[C@H]3[C@@H]2CO[C@@H]3c2cc(OC)c(O[C@@H]3O[C@H](CO)[C@@H](O)[C@H](O)[C@H]3O[C@@H]3OC[C@](O)(CO)[C@H]3O)c(OC)c2)cc(OC)c1O` [Decoy817], the Type entry is on record as “Inactive (Decoy)”. Regarding `CCOC(=O)C1=C(C)NC(=O)N[C@H]1c1ccc(OCC(=O)N/N=C/c2ccc(SC)cc2)c(OC)c1` [Decoy818], the Type entry is reported as “Inactive (Decoy)”. As for `O=S1(=O)CC[C@@H](NCOC(COCN[C@H]2CCS(=O)(=O)C2)COCN[C@H]2CCS(=O)(=O)C2)C1` [Decoy819], the Type entry is given as “Inactive (Decoy)”. For the compound `CCOC(=O)CCC(=O)O[C@H]1[C@@H](O[C@@H]2[C@H](C)[C@H](O[C@@H]3C[C@@](C)(OC)[C@H](O)[C@H](C)O3)[C@H](C)C(=O)O[C@@H](CC)[C@@](C)(O)[C@H](O)[C@H](C)C(=O)[C@H](C)C[C@@]2(C)O)O[C@@H](C)C[C@H]1N(C)C` [Decoy820], the Type entry was “Inactive (Decoy)”.

For `CN(Cc1cnc2nc(N)nc(N)c2n1)c1ccc(C(=O)N[C@H](CCC(=O)NCCNC(=O)CCCC[C@@H]2SC[C@@H]3NC(=O)N[C@@H]32)C(=O)O)cc1` [Decoy821], the Type result is recorded as “Inactive (Decoy)”. `CC(C)COC(=O)c1ccc(Nc2ncnc(NNC(=O)Cc3ccc([N+](=O)[O-])cc3)c2[N+](=O)[O-])cc1` [Decoy822]: the Type entry is “Inactive (Decoy)”.

In the case of `COc1cc([C@H]2c3cc(OC)c(O[C@H]4O[C@@H](CO)[C@@H](O)[C@@H](O)[C@H]4O)c(OC)c3C[C@@H](CO)[C@@H]2CO)cc(OC)c1O` [Decoy823], the Type result is “Inactive (Decoy)”. As to `COc1cc([C@H]2c3cc(OC)c(O[C@H]4O[C@@H](CO)[C@@H](O)[C@@H](O)[C@H]4O)c(OC)c3C[C@H](CO)[C@@H]2CO)cc(OC)c1O` [Decoy824], the Type entry is recorded as “Inactive (Decoy)”. For the compound `O=C(CS[C@@H]1NN[C@H](NCc2ccco2)S1)N[C@H](Cc1c[nH]c2ccccc12)C(=O)O` [Decoy825], the Type result was “Inactive (Decoy)”. As for `Cn1c(CCCC(=O)O)nc2cc(N(CCO)CCOC(=O)CCCc3nc4cc(N(CCO)CCO)ccc4n3C)ccc21` [Decoy826], the Type result was “Inactive (Decoy)”.

On to `COc1ccc(N/C(=N/C(=O)c2ccc(OC)c(OC)c2)NCCc2c(C)nn(C)c2C)cc1OC` [Decoy827], for which the Type result is reported as “Inactive (Decoy)”. Turning to `O[C@H](CNCCOc1ccccc1OCCNC[C@H](O)COc1cccc2[nH]c3ccccc3c12)COc1cccc2[nH]c3ccccc3c12` [Decoy828], the Type entry is given as “Inactive (Decoy)”. With `CCN(CC)c1ccc2c(-c3ccc(S(=O)(=O)NCCSS(C)(=O)=O)cc3S(=O)(=O)[O-])c3ccc(=[N+](CC)CC)cc-3oc2c1` [Decoy829], the Type result is listed as “Inactive (Decoy)”.
